Data as given in ChEMBL document CHEMBL1201862, “PubChem BioAssay data set” (2004).
Activity calls are given as the source filed them.

Experiments:
Protein Tat = Protein Tat (Human immunodeficiency virus type 1 group M subtype B (isolate HXB2)(HIV-1), UniProt P04608); format: functional;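 further: tat binding to TAR RNA read out by fluorescence polarization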
[1] = Luminescence Cell-Based Dose Confirmation HTS to Identify Activators of 5'UTR Stem-Loop Driven Alpha-Synuclein mRNA Translation in H4 Neuroglioblastoma Cells. [Related pubchem assays: 1829 (Project Summary), 1814 (Primary HTS)]; format: functional
[2] = Luminescence Cell-Based Dose Response HTS to Identify Activators of Luciferase Translation or Activity in H4 […] Cells. [Related pubchem assays: 1829 (Project Summary), 1814 (Primary HTS)]; format: functional
H4 = assay: Luminescence Cell-Based Dose Response HTS to Identify Activators of 5'UTR Stem-Loop Driven Prion Protein mRNA Translation in H4 Neuroglioblastoma Cells. [Related pubchem assays: 1829 (Project Summary), 1814 (Primary HTS)]; format: functional; settings: Homo sapiens
Transthyretin = Transthyretin (Homo sapiens, UniProt P02766); assay: Luminescence-based cell-based high throughput dose response assay to identify activators of Transthyretin (TTR) transcription.; format: functional
Large T antigen = Large T antigen (Simian virus 40, UniProt P03070); format: functional, Betapolyomavirus macacae;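 further: Confirmatory-stage PubChem screen for compounds that inhibit SV40 T antigen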
[3] = target: T1, Replicative DNA helicase DnaB (Mycobacterium tuberculosis, UniProt P9WMR3); assay: DnaB intein splicing inhibitors, dose response, biochemical, cell-free fluorescence (AID 449749); format: functional
T1 sequence (P9WMR3 whole entry): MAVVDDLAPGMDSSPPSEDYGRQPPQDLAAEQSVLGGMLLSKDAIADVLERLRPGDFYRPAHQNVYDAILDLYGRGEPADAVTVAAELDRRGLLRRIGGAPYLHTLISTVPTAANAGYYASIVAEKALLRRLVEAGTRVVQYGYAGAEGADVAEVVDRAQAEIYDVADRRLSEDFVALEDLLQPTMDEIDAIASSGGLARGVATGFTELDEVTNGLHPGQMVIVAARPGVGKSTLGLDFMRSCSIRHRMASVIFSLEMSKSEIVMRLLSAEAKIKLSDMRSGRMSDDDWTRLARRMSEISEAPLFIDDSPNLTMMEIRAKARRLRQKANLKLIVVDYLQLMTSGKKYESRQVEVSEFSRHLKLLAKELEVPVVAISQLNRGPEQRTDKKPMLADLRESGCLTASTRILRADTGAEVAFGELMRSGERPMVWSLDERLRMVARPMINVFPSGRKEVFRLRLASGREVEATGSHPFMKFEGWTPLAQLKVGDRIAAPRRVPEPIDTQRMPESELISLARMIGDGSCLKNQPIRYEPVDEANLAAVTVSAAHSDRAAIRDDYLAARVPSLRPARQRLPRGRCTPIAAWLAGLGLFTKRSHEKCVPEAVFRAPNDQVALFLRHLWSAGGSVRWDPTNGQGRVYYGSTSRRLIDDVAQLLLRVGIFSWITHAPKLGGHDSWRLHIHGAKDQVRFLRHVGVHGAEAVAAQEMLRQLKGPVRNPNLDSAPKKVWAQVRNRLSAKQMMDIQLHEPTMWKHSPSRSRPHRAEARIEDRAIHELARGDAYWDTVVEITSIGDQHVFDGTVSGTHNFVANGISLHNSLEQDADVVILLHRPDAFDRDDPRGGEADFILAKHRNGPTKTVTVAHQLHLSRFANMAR

Protein RecA = target: T2, Protein RecA (Mycobacterium tuberculosis, UniProt P9WHJ3); assay: Fluorescence Cell-Free Homogeneous Dose Retest to Identify Inhibitors of RecA-Intein Splicing Activity. [Related pubchem assays (depositor defined):AID2097, AID2223, AID489010, AID492950]; format: functional
T2 sequence (P9WHJ3 whole entry): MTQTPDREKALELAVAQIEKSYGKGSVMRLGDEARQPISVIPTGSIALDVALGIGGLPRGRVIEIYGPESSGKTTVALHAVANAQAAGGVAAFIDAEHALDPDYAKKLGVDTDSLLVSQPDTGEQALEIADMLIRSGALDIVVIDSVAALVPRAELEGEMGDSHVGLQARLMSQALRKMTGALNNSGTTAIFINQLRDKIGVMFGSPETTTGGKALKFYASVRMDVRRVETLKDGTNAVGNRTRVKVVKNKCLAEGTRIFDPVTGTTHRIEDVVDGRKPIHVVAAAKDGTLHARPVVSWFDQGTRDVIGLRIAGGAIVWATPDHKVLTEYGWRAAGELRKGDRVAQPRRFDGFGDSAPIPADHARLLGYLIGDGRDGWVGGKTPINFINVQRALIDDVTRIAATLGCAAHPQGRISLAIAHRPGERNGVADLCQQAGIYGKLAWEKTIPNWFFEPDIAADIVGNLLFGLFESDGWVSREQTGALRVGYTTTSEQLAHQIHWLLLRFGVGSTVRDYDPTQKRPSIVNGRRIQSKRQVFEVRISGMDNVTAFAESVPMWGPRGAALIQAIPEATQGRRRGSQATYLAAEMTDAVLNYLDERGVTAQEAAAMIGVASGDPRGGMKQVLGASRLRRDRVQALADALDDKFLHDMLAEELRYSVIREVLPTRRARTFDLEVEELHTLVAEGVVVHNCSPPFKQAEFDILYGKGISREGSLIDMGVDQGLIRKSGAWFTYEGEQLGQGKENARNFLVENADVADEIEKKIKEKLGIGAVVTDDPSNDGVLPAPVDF

Paired box protein Pax-8 = Paired box protein Pax-8 (Homo sapiens, UniProt Q06710); assay: inhibitors of PAX8-driven TPO luciferase reporter, dose response, RMG-I cells, cherry-pick (AID 687027); format: functional, cell-based;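 further: luciferase reporter driven by Pax8 target thyroperoxidase promoter measured by SteadyGlo luminescence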
[4] = IOSE-T80 ovarian epithelial cell cytotoxicity, dose response, cytotoxicity control for PAX8 inhibitor project, plate reader, dry powder samples (AID 743045); format: functional, cell-based
[5] = A2780 ovarian cancer cell cytotoxicity, dose response, cytotoxicity control, plate reader, dry powder samples (AID 743046); format: functional, cell-based
[6] = NIH:OVCAR-3 ovarian cancer cell cytotoxicity, dose response, PAX8 inhibitor project, plate reader, dry powder samples (AID 743044); format: functional, cell-based
[7] = IGROV1 ovarian cancer cell cytotoxicity, dose response, PAX8 inhibitor project, plate reader, dry powder samples (AID 743043); format: functional, cell-based; settings: IGROV-1
[8] = cytotoxicity in OVCAR8 ovarian cancer cells, dose response, PAX8 project, cell-based, plate reader, dry powder samples (AID 743197); format: functional; settings: OVCAR-8
HEK293 = assay: HEK293T cell cytotoxicity, dose response, cytotoxicity control, ATP luminescence, cherry-pick samples (AID 687005); format: functional, cell-based; settings: Homo sapiens;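 further: cells exposed to compound for 48 hours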
[9] = HEK293 Cytotoxicity Assay Measured in Cell-Based System Using Plate Reader - 7071-01_Inhibitor_Dose_CherryPick_Activity_Set2.; format: functional
[10] = MITF Orthogonal Assay: SK-MEL-5 CTG Assay Measured in Cell-Based System Using Plate Reader - 2084-02_Inhibitor_Dose_DryPowder_Activity_Set7.; format: functional
[11] = MITF: Counter assay: A375 proliferation Measured in Cell-Based System Using Plate Reader - 2084-03_Inhibitor_Dose_DryPowder_Activity_Set8.; format: functional; settings: A-375
[12] = TRPM1 promoter luciferase reporter signal decrease, dose response, MITF inhibitor project, cell-based, SK-MEL-5, dry powder, set 8 (AID 624430); format: functional
[13] = target: Metabotropic glutamate receptor 5 (Rattus norvegicus, UniProt P31424); assay: Identification of a glycine sulfonamide based non-MPEP site positive allosteric potentiator (PAM) of mGlu5 (calcium_assay).; format: functional
[14] = target: Induced myeloid leukemia cell differentiation protein Mcl-1 (Homo sapiens, UniProt Q07820); format: functional
[15] = target: T3, Mannose-6-phosphate isomerase (Homo sapiens, UniProt P34949); assay: human PMI inhibitors, high substrate, primary screen, biochemical, fluorescence intensity, high mannose 6-phosphate (AID 1220)
T3 sequence (P34949 whole entry): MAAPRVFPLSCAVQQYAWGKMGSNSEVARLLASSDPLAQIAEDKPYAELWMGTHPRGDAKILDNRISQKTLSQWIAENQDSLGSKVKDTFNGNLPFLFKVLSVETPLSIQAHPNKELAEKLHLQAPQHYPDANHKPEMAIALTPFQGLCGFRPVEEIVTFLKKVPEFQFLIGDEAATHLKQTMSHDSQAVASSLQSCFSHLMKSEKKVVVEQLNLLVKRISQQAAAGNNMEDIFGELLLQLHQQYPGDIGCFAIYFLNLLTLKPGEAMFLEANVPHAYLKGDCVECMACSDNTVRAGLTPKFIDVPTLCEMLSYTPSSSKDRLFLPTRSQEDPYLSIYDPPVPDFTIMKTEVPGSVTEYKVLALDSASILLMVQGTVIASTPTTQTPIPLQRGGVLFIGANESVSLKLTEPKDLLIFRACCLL

Genome polyprotein = Genome polyprotein (dengue virus type 2, UniProt P29990); assay: Dengue-2 NS5 methyltransferase inhibitors, primary screen, biochemical, confirmation dose response (AID 588689); format: functional
[16] = target: T4, Histone-lysine N-methyltransferase NSD2 (Homo sapiens, UniProt O96028); format: biochemical
T4 sequence (O96028 whole entry): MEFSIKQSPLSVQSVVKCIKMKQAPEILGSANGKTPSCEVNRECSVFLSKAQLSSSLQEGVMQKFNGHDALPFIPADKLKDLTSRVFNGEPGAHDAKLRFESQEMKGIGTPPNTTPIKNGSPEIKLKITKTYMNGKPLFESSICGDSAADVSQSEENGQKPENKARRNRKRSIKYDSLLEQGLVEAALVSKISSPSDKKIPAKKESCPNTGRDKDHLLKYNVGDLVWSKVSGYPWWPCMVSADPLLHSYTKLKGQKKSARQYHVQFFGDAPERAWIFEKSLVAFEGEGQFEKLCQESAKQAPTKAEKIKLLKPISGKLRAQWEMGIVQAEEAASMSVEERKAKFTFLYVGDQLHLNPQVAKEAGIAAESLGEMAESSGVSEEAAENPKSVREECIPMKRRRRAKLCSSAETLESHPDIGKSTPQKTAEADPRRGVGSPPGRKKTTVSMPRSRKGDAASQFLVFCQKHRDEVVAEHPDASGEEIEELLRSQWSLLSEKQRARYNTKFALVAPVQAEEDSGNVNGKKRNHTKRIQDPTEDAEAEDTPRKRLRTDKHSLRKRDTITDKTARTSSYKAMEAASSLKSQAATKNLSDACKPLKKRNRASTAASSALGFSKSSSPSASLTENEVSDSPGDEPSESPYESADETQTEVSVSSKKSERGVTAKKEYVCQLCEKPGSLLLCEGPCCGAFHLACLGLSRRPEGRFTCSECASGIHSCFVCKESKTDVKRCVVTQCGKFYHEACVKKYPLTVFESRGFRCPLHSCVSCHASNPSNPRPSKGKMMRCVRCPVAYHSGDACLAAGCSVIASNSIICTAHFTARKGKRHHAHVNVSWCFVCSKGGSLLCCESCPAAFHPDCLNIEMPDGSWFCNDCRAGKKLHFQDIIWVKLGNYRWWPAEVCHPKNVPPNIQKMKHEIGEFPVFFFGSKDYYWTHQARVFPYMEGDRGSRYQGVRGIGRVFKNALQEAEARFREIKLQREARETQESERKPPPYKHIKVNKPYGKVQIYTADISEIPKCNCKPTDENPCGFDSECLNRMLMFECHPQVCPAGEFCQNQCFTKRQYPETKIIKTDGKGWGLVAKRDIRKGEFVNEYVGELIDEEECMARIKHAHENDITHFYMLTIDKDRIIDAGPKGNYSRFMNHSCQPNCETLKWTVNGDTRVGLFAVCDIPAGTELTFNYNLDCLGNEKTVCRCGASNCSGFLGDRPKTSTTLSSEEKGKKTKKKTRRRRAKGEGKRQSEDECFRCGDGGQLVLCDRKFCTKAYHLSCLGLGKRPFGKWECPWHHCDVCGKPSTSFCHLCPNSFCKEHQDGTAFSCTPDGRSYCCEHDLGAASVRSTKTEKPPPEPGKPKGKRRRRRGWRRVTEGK

[17] = target: RNA-editing ligase 1, mitochondrial (Trypanosoma brucei brucei, UniProt P86926); assay: TbREL1 ligase inhibitors, dose response, biochemical, fluorescence, Trypanosoma brucei (AID 1117295); format: functional
cells = settings: HEK293;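 further: cells exposed to compound for 48 hours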

Sequence of Paired box protein Pax-8 (Q06710 whole entry): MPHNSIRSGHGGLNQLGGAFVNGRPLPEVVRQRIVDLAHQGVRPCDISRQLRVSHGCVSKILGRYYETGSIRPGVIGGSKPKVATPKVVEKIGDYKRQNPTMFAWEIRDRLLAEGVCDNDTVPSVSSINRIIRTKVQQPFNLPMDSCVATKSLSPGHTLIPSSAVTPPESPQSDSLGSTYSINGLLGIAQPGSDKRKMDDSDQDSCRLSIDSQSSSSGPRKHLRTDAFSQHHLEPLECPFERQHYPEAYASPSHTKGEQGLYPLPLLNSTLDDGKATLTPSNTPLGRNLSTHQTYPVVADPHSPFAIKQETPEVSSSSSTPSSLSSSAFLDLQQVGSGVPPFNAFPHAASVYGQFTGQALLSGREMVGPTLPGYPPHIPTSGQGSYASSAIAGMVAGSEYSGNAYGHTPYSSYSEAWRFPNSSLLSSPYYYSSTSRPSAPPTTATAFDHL
Sequence of Metabotropic glutamate receptor 5 (P31424 whole entry): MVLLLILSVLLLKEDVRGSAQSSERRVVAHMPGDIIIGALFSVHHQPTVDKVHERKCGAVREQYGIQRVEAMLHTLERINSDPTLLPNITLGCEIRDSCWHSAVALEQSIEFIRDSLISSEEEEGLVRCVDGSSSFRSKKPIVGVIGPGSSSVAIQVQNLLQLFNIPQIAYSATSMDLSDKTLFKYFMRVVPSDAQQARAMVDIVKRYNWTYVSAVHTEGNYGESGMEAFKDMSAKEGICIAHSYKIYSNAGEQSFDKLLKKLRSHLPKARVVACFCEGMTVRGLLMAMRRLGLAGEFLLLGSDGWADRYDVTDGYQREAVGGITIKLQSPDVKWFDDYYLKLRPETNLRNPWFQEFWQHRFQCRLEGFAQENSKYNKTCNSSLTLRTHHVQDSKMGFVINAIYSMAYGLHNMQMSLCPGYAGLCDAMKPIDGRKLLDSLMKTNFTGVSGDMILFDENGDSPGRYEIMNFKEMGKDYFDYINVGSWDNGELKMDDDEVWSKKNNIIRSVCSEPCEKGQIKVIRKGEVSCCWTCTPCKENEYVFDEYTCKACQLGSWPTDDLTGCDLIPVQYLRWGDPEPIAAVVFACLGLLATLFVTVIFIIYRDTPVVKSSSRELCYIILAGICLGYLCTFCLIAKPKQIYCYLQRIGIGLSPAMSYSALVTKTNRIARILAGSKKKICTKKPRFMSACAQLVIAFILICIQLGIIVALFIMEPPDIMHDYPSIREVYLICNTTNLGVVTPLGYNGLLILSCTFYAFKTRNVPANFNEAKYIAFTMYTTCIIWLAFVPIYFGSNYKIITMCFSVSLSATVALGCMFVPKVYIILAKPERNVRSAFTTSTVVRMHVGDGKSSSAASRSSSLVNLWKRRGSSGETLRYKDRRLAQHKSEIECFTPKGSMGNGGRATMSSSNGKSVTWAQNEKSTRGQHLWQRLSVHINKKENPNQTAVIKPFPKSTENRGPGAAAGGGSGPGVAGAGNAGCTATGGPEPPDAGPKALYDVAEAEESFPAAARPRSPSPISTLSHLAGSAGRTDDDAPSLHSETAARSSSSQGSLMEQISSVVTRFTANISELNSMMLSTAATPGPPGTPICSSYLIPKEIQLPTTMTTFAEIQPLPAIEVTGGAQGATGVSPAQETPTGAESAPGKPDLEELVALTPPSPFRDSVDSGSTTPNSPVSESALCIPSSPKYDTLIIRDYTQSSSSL
Sequence of Genome polyprotein (P29990 2492-3391 limits assumed): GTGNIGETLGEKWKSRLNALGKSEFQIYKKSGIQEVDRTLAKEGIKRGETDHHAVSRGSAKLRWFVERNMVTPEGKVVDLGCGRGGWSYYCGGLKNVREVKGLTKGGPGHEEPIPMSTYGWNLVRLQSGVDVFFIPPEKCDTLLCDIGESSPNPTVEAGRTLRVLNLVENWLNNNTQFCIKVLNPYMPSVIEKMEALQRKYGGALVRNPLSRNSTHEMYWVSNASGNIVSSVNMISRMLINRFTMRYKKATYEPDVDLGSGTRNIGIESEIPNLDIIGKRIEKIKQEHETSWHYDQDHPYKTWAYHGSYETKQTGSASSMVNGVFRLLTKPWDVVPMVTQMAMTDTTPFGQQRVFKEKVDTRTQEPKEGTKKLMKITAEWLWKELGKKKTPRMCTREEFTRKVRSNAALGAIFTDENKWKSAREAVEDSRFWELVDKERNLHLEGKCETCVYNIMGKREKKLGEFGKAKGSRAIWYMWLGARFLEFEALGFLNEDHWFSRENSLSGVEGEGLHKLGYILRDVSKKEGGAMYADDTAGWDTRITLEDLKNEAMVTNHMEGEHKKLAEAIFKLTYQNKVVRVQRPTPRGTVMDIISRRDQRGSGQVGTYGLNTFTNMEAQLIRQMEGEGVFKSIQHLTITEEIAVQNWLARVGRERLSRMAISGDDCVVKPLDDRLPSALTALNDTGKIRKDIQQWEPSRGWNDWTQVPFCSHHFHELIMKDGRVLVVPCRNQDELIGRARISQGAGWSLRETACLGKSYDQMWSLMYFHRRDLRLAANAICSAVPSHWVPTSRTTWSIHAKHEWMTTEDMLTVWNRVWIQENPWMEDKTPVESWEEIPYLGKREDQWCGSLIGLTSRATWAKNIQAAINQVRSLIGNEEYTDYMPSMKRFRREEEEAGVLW
Sequence of Protein Tat (P04608 whole entry): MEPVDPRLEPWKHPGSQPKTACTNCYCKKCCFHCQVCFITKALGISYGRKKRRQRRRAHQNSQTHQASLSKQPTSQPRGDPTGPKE
Sequence of RNA-editing ligase 1, mitochondrial (P86926 whole entry): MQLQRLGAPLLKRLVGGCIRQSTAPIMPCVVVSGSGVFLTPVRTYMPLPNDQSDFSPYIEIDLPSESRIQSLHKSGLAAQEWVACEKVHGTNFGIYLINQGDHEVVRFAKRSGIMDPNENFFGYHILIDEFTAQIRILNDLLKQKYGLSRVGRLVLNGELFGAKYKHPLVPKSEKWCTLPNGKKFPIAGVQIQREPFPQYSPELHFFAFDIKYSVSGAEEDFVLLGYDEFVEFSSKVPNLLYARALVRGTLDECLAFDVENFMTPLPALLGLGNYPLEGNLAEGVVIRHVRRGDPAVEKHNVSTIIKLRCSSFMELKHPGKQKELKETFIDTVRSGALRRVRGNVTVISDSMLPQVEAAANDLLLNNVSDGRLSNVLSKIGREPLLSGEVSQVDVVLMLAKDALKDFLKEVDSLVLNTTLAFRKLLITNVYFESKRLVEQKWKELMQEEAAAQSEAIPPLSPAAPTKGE
Sequence of Large T antigen (P03070 whole entry): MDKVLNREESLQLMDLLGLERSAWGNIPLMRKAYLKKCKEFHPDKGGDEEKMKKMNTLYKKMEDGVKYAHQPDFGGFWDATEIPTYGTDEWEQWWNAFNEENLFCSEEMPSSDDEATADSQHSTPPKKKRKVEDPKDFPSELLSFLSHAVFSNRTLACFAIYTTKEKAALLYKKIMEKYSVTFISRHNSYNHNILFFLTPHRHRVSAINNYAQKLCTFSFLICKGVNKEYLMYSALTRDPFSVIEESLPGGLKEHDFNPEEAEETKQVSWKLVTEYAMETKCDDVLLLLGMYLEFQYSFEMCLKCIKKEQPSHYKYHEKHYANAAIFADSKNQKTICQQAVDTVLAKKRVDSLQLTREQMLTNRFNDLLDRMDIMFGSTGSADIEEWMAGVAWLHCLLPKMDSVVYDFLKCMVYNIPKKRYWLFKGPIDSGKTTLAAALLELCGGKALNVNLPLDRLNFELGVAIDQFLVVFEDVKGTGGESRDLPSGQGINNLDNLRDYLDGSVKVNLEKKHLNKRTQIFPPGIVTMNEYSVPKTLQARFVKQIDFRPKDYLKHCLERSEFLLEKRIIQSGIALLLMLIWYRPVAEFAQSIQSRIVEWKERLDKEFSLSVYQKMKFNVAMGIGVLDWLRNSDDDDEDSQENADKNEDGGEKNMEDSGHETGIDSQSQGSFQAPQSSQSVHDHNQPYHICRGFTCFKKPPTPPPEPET
Sequence of Induced myeloid leukemia cell differentiation protein Mcl-1 (Q07820 whole entry): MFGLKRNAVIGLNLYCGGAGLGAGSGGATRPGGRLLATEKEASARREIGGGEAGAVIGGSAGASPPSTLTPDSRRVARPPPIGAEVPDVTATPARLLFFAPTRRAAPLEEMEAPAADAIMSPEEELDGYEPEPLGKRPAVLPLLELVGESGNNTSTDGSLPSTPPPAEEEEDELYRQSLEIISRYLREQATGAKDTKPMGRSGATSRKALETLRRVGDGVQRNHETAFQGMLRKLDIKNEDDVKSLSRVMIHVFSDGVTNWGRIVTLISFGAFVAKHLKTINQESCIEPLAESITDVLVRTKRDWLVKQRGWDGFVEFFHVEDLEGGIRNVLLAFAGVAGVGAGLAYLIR

Cn1c(SCC(=O)c2cc(Cl)c(Cl)s2)nnc1-c1ccco1
IC50 (Protein Tat): > 50 µM (active)

c1ccc(Sc2ncnc3c2oc2ccccc23)nc1
EC50 [1]: 4.69 µM (active) | EC50 [2]: 26.6 µM (active) | EC50 (H4): 90.1 µM (active) | EC50 (Transthyretin): > 167 µM (inactive)

O=C(CCl)c1cc2c3c(c1)CC(=O)N3CCC2
IC50 (Large T antigen): 40.6 µM (active) | AC50 [3]: 35.9 µM (active) | EC50 (Protein RecA): 11.7 µM (active) | EC50 (Transthyretin): > 167 µM (inactive)

C[C@@H]1CCCCO[C@@H](CN(C)CC2CCCCC2)[C@H](C)CN([C@H](C)CO)C(=O)c2cc(NS(=O)(=O)c3ccc(Cl)cc3)ccc2O1
AC50 (Paired box protein Pax-8): 5.5 µM (active) | AC50 [4]: 41.4 µM (active) | AC50 [5]: 20.4 µM (active) | AC50 [6]: 23.4 µM (active) | AC50 [7]: 33.5 µM (active) | AC50 [8]: 25.6 µM (active)

O=C(C[C@@H]1CC[C@H]2[C@@H](COC[C@@H](O)CN2Cc2ccc(Cl)cc2)O1)NCc1cccc(F)c1
AC50 (HEK293): 21.4 µM (active) | AC50 [9]: 21.4 µM (active)

CCS(=O)(=O)NCC[C@H]1CC[C@H](NS(=O)(=O)c2cccc(F)c2)[C@H](CO)O1
AC50 (HEK293): 33.5 µM (active) | AC50 [9]: 33.5 µM (active)

COc1ccc(S(=O)(=O)Nc2ccc3c(c2)C(=O)N([C@H](C)CO)C[C@H](C)[C@@H](CN(C)S(=O)(=O)c2ccc(C)cc2)OCCCC[C@H](C)O3)cc1
AC50 (Paired box protein Pax-8): 6.27 µM (active) | AC50 [4]: 9.47 µM (active) | AC50 [5]: 44 µM (active) | AC50 [6]: 11.8 µM (active) | AC50 [7]: 33.5 µM (active) | AC50 [8]: 14.8 µM (active)

O=C1C(Nc2ccccc2)=CC(=O)c2ncccc21
AC50 [10]: 0.195 µM (active) | AC50 [11]: 16.2 µM (active) | AC50 [12]: 0.413 µM (active)

CS(=O)(=O)N(CC(=O)Nc1cccnc1F)c1ccccc1Cl
EC50 [13]: 1.69 µM

CN(C(=O)CN(c1ccccc1Cl)S(C)(=O)=O)c1ccccc1
EC50 [13]: 10 µM (inconclusive)

O=C(Cc1csc(N2CCOCC2)n1)N/N=C/c1ccc(O)c(O)c1O
IC50 [14]: 3.52 µM (active) | IC50 [15]: 8.94 µM (active) | IC50 (Genome polyprotein): > 100 µM (active) | AC50 [16]: > 20 µM (inactive) | IC50 [17]: > 96.6 µM (inactive)

CSc1nc2ccccc2n1CCOc1ccccc1
AC50 (cells): > 52 µM (inactive)
